Reference: the Kinase Knowledgebase extract (Sharma et al. 2016)

Legend:
EGFR (human) [1] = molecular target: EGFR (human) (UniProt P00533)
EGFR (human) [2] = molecular target: EGFR (human) (UniProt P00533); details: a431

Sequence of EGFR (human) (P00533 whole entry, looked up): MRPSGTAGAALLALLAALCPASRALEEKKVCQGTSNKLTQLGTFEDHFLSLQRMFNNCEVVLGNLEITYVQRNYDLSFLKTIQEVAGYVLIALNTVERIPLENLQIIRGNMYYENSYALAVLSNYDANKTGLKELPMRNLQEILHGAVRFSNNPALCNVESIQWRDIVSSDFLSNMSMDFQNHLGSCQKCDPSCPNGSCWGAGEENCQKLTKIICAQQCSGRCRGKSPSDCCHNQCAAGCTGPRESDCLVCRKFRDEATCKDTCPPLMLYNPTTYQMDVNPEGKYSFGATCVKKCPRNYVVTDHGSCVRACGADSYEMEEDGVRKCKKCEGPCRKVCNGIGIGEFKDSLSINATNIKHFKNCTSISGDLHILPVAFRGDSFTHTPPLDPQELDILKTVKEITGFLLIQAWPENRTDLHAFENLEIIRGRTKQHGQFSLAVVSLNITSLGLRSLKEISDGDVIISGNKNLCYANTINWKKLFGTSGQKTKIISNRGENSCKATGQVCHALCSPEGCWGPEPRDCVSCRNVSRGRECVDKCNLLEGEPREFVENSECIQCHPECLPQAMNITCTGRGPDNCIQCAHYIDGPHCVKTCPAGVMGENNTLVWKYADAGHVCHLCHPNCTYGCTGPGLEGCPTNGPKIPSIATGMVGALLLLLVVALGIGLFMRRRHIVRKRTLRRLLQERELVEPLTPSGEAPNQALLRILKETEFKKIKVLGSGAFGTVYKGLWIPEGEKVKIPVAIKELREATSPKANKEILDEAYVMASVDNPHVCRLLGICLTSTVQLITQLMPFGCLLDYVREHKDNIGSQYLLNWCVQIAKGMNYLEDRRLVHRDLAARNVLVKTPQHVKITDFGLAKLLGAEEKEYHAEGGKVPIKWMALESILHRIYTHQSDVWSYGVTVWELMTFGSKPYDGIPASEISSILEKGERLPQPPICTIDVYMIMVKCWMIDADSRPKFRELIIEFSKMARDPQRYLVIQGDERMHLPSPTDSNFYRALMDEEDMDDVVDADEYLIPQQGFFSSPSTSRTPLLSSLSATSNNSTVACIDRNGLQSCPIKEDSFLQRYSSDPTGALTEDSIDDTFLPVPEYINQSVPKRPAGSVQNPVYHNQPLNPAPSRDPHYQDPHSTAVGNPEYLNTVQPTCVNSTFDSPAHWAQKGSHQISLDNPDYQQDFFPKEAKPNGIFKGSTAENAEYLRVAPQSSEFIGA

| SMILES | IC50 (EGFR (human) [1]) [nM] | IC50 (EGFR (human) [2]) [nM] |
| --- | --- | --- |
| OC(CN1CCNCC1)Cn1ccc(-c2ccc3ncnc(Nc4ccc(OCc5cccc(F)c5)c(Cl)c4)c3c2)c1 (centres undefined) | 30 |  |
| O=S1(=O)CCC(CNCc2cn(-c3ccc4ncnc(Nc5ccc(OCc6cccc(F)c6)c(Cl)c5)c4c3)cc2CCO)CC1 | 24 |  |
| Fc1cccc(COc2ccc(Nc3ncnc4ccc(-c5c[nH]c(CNCCN6CCOCC6)c5)cc34)cc2Cl)c1 | 102 |  |
| O=C(Cn1ccc(-c2ccc3ncnc(Nc4ccc(OCc5cccc(F)c5)c(Cl)c4)c3c2)c1)NC1CCNCC1 | 34 |  |
| Fc1cccc(COc2ccc(Nc3ncnc4ccc(-c5ccn(CCc6ccccn6)c5)cc34)cc2Cl)c1 |  | 1190 |
| O=C(NCCN1CCCC1)c1cn(-c2ccc3ncnc(Nc4ccc5c(cnn5Cc5ccc(F)cc5)c4)c3c2)cc1CCO | 16 |  |
| OCCc1cn(-c2ccc3ncnc(Nc4ccc(OCc5cccc(F)c5)c(Cl)c4)c3c2)cc1CNCCN1CCOCC1 | 71 |  |
| O=S1(=O)CCC(O)(CNCc2cn(-c3ccc4ncnc(Nc5ccc(F)c(Cl)c5)c4c3)cc2CCO)CC1 | 76 |  |
| CN1CCN(Cc2cn(-c3ccc4ncnc(Nc5ccc(OCc6cccc(F)c6)c(Cl)c5)c4c3)cc2CCO)CC1 | 42 |  |
| CS(=O)(=O)CCNCc1cn(-c2ccc3ncnc(Nc4ccc(F)c(Cl)c4)c3c2)cc1CCO | 65 |  |
| Fc1ccc(Nc2ncnc3ccc(-c4cc[nH]c4)cc23)cc1Cl | 47 |  |
| CC(C)(C)OC(=O)n1cccc1-c1ccc2ncnc(Nc3ccc(OCc4cccc(F)c4)c(Cl)c3)c2c1 | 28 |  |
| Fc1cccc(COc2ccc(Nc3ncnc4ccc(-c5ccn(CCN6CCCCC6)c5)cc34)cc2Cl)c1 |  | 2860 |
| CS(=O)(=O)CCNCc1cc(-c2ccc3ncnc(Nc4ccc5c(cnn5Cc5cccc(F)c5)c4)c3c2)c[nH]1 | 4 |  |
| OCCC1CCN(CC(O)Cn2ccc(-c3ccc4ncnc(Nc5ccc6c(cnn6Cc6cccc(F)c6)c5)c4c3)c2)CC1 (centres undefined) |  | 273 |
| CCOC(=O)C1CCN(CC(O)Cn2ccc(-c3ccc4ncnc(Nc5ccc(OCc6cccc(F)c6)c(Cl)c5)c4c3)c2)CC1 (centres undefined) |  | 2000 |
| CN(C)Cc1cn(-c2ccc3ncnc(Nc4ccc(OCc5cccc(F)c5)c(Cl)c4)c3c2)cc1CCO | 39 |  |
| Fc1cccc(COc2ccc(Nc3ncnc4ccc(-n5cc(CNCCN6CCCCC6)c(C(F)(F)F)c5)cc34)cc2Cl)c1 | 10 |  |
| CCN(CC)CCNC(=O)c1cn(-c2ccc3ncnc(Nc4ccc5c(cnn5Cc5ccc(F)cc5)c4)c3c2)cc1CCO | 156 |  |
| CCOC(=O)N1CCN(CC(O)Cn2ccc(-c3ccc4ncnc(Nc5ccc6c(cnn6Cc6cccc(F)c6)c5)c4c3)c2)CC1 (centres undefined) |  | 270 |
| CCOC(=O)c1cn(-c2ccc3ncnc(Nc4ccc(OCc5cccc(F)c5)c(Cl)c4)c3c2)cc1C(F)(F)F | 31 |  |
| CC(C)(C)OC(=O)N1CCC(NCc2cc(-c3ccc4ncnc(Nc5ccc(OCc6cccc(F)c6)c(Cl)c5)c4c3)c[nH]2)CC1 | 470 |  |
| O=C(Cn1ccc(-c2ccc3ncnc(Nc4ccc(OCc5cccc(F)c5)c(Cl)c4)c3c2)c1)NC1CC1 | 13 |  |
| CN(C)Cc1cn(-c2ccc3ncnc(Nc4ccc(OCc5cccc(F)c5)c(Cl)c4)c3c2)cc1CN(C)C | 56 |  |
| O=S1(=O)CCN(CC(O)Cn2ccc(-c3ccc4ncnc(Nc5ccc(OCc6cccc(F)c6)c(Cl)c5)c4c3)c2)CC1 (centres undefined) |  | 1460 |
| O=C(c1cn(-c2ccc3ncnc(Nc4ccc(OCc5cccc(F)c5)c(Cl)c4)c3c2)cc1CCN1CCOCC1)N1CCOCC1 | 25 |  |
| C=C(C)C(=O)Nc1cn(-c2ccc3ncnc(Nc4ccc(OCc5cccc(F)c5)c(Cl)c4)c3c2)cc1C(F)(F)F | 5 |  |

| SMILES | IC50 (EGFR (human) [1]) [nM] | IC50 (EGFR (human) [2]) [nM] |
| --- | --- | --- |
| Fc1cccc(COc2ccc(Nc3ncnc4ccc(-n5cc(CNCCN6CCOCC6)c(C(F)(F)F)c5)cc34)cc2Cl)c1 | 32 |  |
| CN(C)CC=CC(=O)Nc1cn(-c2ccc3ncnc(Nc4ccc(OCc5cccc(F)c5)c(Cl)c4)c3c2)cc1C(F)(F)F | 276 |  |
| CS(=O)(=O)CCNCC(O)Cn1ccc(-c2ccc3ncnc(Nc4ccc(OCc5cccc(F)c5)c(Cl)c4)c3c2)c1 (centres undefined) | 17 |  |
| O=S1(=O)CCC(CNCc2cn(-c3ccc4ncnc(Nc5ccc6c(cnn6Cc6cccc(F)c6)c5)c4c3)cc2CCO)CC1 | 12 |  |
| CN1CCN(C(=O)c2cn(-c3ccc4ncnc(Nc5ccc6c(cnn6Cc6ccc(F)cc6)c5)c4c3)cc2CCO)CC1 | 62 |  |
| OC1CCC(NCC(O)Cn2ccc(-c3ccc4ncnc(Nc5ccc(OCc6cccc(F)c6)c(Cl)c5)c4c3)c2)CC1 (centres undefined) | 49 |  |
| Fc1cccc(COc2ccc(Nc3ncnc4ccc(-c5ccn(CCN6CCOCC6)c5)cc34)cc2Cl)c1 | 40 |  |
| CCN(CC)Cc1cn(-c2ccc3ncnc(Nc4ccc(OCc5cccc(F)c5)c(Cl)c4)c3c2)cc1CN(CC)CC | 127 |  |
| O=C(NCCN1CCCCC1)c1cn(-c2ccc3ncnc(Nc4ccc5c(cnn5Cc5ccc(F)cc5)c4)c3c2)cc1CCO | 23 |  |
| Fc1cccc(COc2ccc(Nc3ncnc4ccc(-c5ccn(CCOC6CCCCO6)c5)cc34)cc2Cl)c1 (centres undefined) | 131 |  |
| CS(=O)(=O)CCNCc1cn(-c2ccc3ncnc(Nc4ccc(OCc5ccccn5)c(Cl)c4)c3c2)cc1CCO | 16 |  |
| Fc1cccc(COc2ccc(Nc3ncnc4ccc(-c5ccn(CCN6CCNCC6)c5)cc34)cc2Cl)c1 | 2 |  |
| Fc1cccc(Cn2ncc3cc(Nc4ncnc5ccc(-c6cc[nH]c6)cc45)ccc32)c1 | 3 |  |
| OC(CNCCN1CCCCC1)Cn1ccc(-c2ccc3ncnc(Nc4ccc(OCc5cccc(F)c5)c(Cl)c4)c3c2)c1 (centres undefined) | 92 |  |
| O=S1(=O)CCC(CNCC(O)Cn2ccc(-c3ccc4ncnc(Nc5ccc(OCc6cccc(F)c6)c(Cl)c5)c4c3)c2)CC1 (centres undefined) | 42 |  |
| O=C1CCc2cn(-c3ccc4ncnc(Nc5ccc(OCc6cccc(F)c6)c(Cl)c5)c4c3)cc21 | 2 |  |
| O=C(c1cn(-c2ccc3ncnc(Nc4ccc5c(cnn5Cc5ccc(F)cc5)c4)c3c2)cc1CCO)N1CCOCC1 | 50 |  |
| O=C(c1cn(-c2ccc3ncnc(Nc4ccc(OCc5ccccn5)c(Cl)c4)c3c2)cc1CCO)N1CCCCC1 | 95 |  |
| O=S1(=O)CCC(O)(CNCc2cn(-c3ccc4ncnc(Nc5ccc(OCc6cccc(F)c6)c(Cl)c5)c4c3)cc2C(F)(F)F)CC1 | 16 |  |
| O=S1(=O)CCC(CNCc2cn(-c3ccc4ncnc(Nc5ccc(F)c(Cl)c5)c4c3)cc2CCO)CC1 | 127 |  |
| CCN(CC)C(=O)Cn1ccc(-c2ccc3ncnc(Nc4ccc(OCc5cccc(F)c5)c(Cl)c4)c3c2)c1 | 140 |  |
| COCCNCc1cc(-c2ccc3ncnc(Nc4ccc(OCc5cccc(F)c5)c(Cl)c4)c3c2)c[nH]1 | 31 |  |
| CCN(CC)CCNCc1cn(-c2ccc3ncnc(Nc4ccc(OCc5cccc(F)c5)c(Cl)c4)c3c2)cc1C(F)(F)F | 53 |  |
| Fc1cccc(COc2ccc(Nc3ncnc4ccc(-n5cc(CN6CCOCC6)c(CN6CCOCC6)c5)cc34)cc2Cl)c1 | 376 |  |
| COCCNCC(O)Cn1ccc(-c2ccc3ncnc(Nc4ccc(OCc5cccc(F)c5)c(Cl)c4)c3c2)c1 (centres undefined) | 11 |  |
| OC1(Cn2ccc(-c3ccc4ncnc(Nc5ccc(OCc6cccc(F)c6)c(Cl)c5)c4c3)c2)CCNCC1 | 12 |  |
| O=C(NCCCN1CCOCC1)c1cn(-c2ccc3ncnc(Nc4ccc5c(cnn5Cc5ccc(F)cc5)c4)c3c2)cc1CCO | 115 |  |

| SMILES | IC50 (EGFR (human) [1]) [nM] | IC50 (EGFR (human) [2]) [nM] |
| --- | --- | --- |
| CS(=O)(=O)n1ccc(-c2ccc3ncnc(Nc4ccc(OCc5cccc(F)c5)c(Cl)c4)c3c2)c1 | 14 |  |
| CN(C)Cc1cn(-c2ccc3ncnc(Nc4ccc5c(cnn5Cc5cccc(F)c5)c4)c3c2)cc1CCO | 15 |  |
| CS(=O)(=O)CCNCc1cn(-c2ccc3ncnc(Nc4ccc5c(cnn5Cc5cccc(F)c5)c4)c3c2)cc1CCO | 25 |  |
| O=C(NCCCN1CCOCC1)c1cn(-c2ccc3ncnc(Nc4ccc(OCc5ccccn5)c(Cl)c4)c3c2)cc1CCO | 96 |  |
| CCN(CC)CCON=C1CCc2cn(-c3ccc4ncnc(Nc5ccc(OCc6cccc(F)c6)c(Cl)c5)c4c3)cc21 | 72 |  |
| CCN(CC)Cc1cn(-c2ccc3ncnc(Nc4ccc(OCc5ccccn5)c(Cl)c4)c3c2)cc1CCO | 21 |  |
| O=C(Cn1ccc(-c2ccc3ncnc(Nc4ccc(OCc5cccc(F)c5)c(Cl)c4)c3c2)c1)N1CCCCC1 | 66 |  |
| CN(C)CCc1cn(-c2ccc3ncnc(Nc4ccc(OCc5cccc(F)c5)c(Cl)c4)c3c2)cc1C(=O)N1CCOCC1 | 57 |  |
| O=C(NCCN1CCCCC1)c1cn(-c2ccc3ncnc(Nc4ccc(OCc5cccc(F)c5)c(Cl)c4)c3c2)cc1CCO | 8 |  |
| O=S1(=O)CCC(O)(CNCc2cn(-c3ccc4ncnc(Nc5ccc(OCc6cccc(F)c6)c(Cl)c5)c4c3)cc2CCO)CC1 | 19 |  |
| COCCc1cn(-c2ccc3ncnc(Nc4ccc(OCc5cccc(F)c5)c(Cl)c4)c3c2)cc1C(=O)N1CCOCC1 | 72 |  |
| OCCc1cn(-c2ccc3ncnc(Nc4ccc(OCc5ccccn5)c(Cl)c4)c3c2)cc1CN1CCOCC1 | 22 |  |
| O=C(c1cn(-c2ccc3ncnc(Nc4ccc(OCc5ccccn5)c(Cl)c4)c3c2)cc1CCO)N1CCC(N2CCCCC2)CC1 | 105 |  |
| Fc1cccc(COc2ccc(Nc3ncnc4ccc(-c5ccn(C[C@H]6CCNC6)c5)cc34)cc2Cl)c1 | 638 |  |
| O[C@@H](CNCc1cn(-c2ccc3ncnc(Nc4ccc(OCc5cccc(F)c5)c(Cl)c4)c3c2)cc1C(F)(F)F)CN1CCOCC1 | 91 |  |
| OC(CN1CCOCC1)Cn1ccc(-c2ccc3ncnc(Nc4ccc(OCc5cccc(F)c5)c(Cl)c4)c3c2)c1 (centres undefined) | 12 |  |
| OCC1CCCN1CCn1ccc(-c2ccc3ncnc(Nc4ccc(OCc5cccc(F)c5)c(Cl)c4)c3c2)c1 (centres undefined) | 60 |  |
| CCN(CC)CCc1cn(-c2ccc3ncnc(Nc4ccc(OCc5cccc(F)c5)c(Cl)c4)c3c2)cc1C(=O)N1CCOCC1 | 15 |  |
| Fc1cccc(COc2ccc(Nc3ncnc4ccc(-c5c[nH]c(CN6CCC(N7CCCCC7)CC6)c5)cc34)cc2Cl)c1 | 66 |  |
| O=C(c1cn(-c2ccc3ncnc(Nc4ccc(OCc5ccccn5)c(Cl)c4)c3c2)cc1CCO)N1CCCC1 | 30 |  |
| CS(=O)(=O)CCNCc1cn(-c2ccc3ncnc(Nc4ccc(OCc5cccc(F)c5)c(Cl)c4)c3c2)cc1CCO | 11 |  |
| CCN(CC)Cc1cn(-c2ccc3ncnc(Nc4ccc(OCc5cccc(F)c5)c(Cl)c4)c3c2)cc1CCO | 37 |  |
| CS(=O)(=O)CCNC(=O)c1cc(-c2ccc3ncnc(Nc4ccc(OCc5cccc(F)c5)c(Cl)c4)c3c2)c[nH]1 | 24 |  |
| Fc1cccc(COc2ccc(Nc3ncnc4ccc(-n5cc(CN6CCCCC6)c(CN6CCCCC6)c5)cc34)cc2Cl)c1 | 291 |  |
| Fc1cccc(COc2ccc(Nc3ncnc4ccc(-c5c[nH]c(CNCCCN6CCOCC6)c5)cc34)cc2Cl)c1 | 197 |  |
